Experiments:
[1] = Equilibrium solubility in water; conditions: obs. temp. 40 °C
[2] = Solubility determination in oil (cottonseed oil, sesame oil); conditions: heating temp. 60 °C
Procedure: A known amount of test substance (˜40 mg) was weighed into the vial, 100 μL of oil was added and heated to 60° C. and then system was slurried to reach equilibrium. […] Extra oil was added into the vial once compound precipitated out and then the system was re-equilibrated at 1000 rpm at room temperature (25° C.). Final concentration was determined by HPLC method as described below in Table 6a and 6b.

[3] = Plasma stability assay, rat plasma; format: in vitro ADME; conditions: 37° C., 10 μM
[4] = Plasma stability assay, dog plasma; format: in vitro ADME; conditions: 37° C., 2 μM; for % remaining at time point in minutes, 15 min: 15 min (as headed); for % remaining at time point in minutes, 120 min: 120 min (as headed); for % remaining at time point in minutes, 480 min: 480 min (as headed); for % remaining at time point in minutes, 1440 min: 1440 min (as headed)
Procedure: (§1) Plasma stability determination of the test compounds in rat, dog, cynomolgus monkey and human plasma is performed using HPLC-MS. For rat, incubations are carried out in 96-well polypropylene plates in 5 aliquots of 70 μL each (one for each time point). […] Five time points are analyzed (0, 15, 120, 480 and 1440 min). […] All incubations are performed in duplicates. The samples are analyzed by HPLC-MS. The percentage of parent compound remaining after incubation in plasma is determined.

[5] = Plasma stability assay, monkey plasma; format: in vitro ADME, cynomolgus monkey; conditions: 37° C., 2 μM; for % remaining at time point in minutes, 15 min: 15 min (as headed); for % remaining at time point in minutes, 120 min: 120 min (as headed); for % remaining at time point in minutes, 480 min: 480 min (as headed); for % remaining at time point in minutes, 1440 min: 1440 min (as headed)
Procedure: as §1

[6] = Plasma stability assay, human plasma; format: in vitro ADME; conditions: 37° C., 2 μM; for % remaining at time point in minutes, 15 min: 15 min (as headed); for % remaining at time point in minutes, 120 min: 120 min (as headed); for % remaining at time point in minutes, 480 min: 480 min (as headed); for % remaining at time point in minutes, 1440 min: 1440 min (as headed)
Procedure: as §1

[7] = Liver S9 fraction stability, dog; format: in vitro ADME; conditions: 1.0 mg/ml S9 protein, 2 μM, 37° C.
Procedure: (§2) Liver S9 fraction stability determination of the test compounds in dog, cynomolgus monkey and human is performed using HPLC-MS. Test compound (2 μM, 0.1% DMSO, 1% Methanol final concentration) was assessed for stability in a 50 μl phosphate buffer containing 1.0 mg/ml S9 protein from each of the three species and 5 mM D-saccharic acid-1, 4-lactone. Samples were incubated at 37° C. for 60 minutes and the % compound remaining was assessed.

[8] = Liver S9 fraction stability, monkey; format: in vitro ADME, cynomolgus monkey; conditions: 1.0 mg/ml S9 protein, 2 μM, 37° C.
Procedure: as §2

[9] = Liver S9 fraction stability, human; format: in vitro ADME; conditions: 1.0 mg/ml S9 protein, 2 μM, 37° C.
Procedure: as §2

KOR = target: T1, KOR (Homo sapiens, UniProt P41145); test: Opioid receptor binding assay, KOR ([3H]Diprenorphine); conditions: KOR, MaxDose 10000 nM
T1 construct: expressed in transfected cells; membranes prepared from them

MOR = target: T2, MOR (Homo sapiens, UniProt P35372); test: Opioid receptor binding assay, MOR ([3H]DAMGO); conditions: MOR, MaxDose 10000 nM
T2 construct: expressed in transfected cells; membranes prepared from them

[10] = Rat pharmacokinetic studies, intramuscular; format: in vivo, male Sprague Dawley Rats; conditions: rat IM
Procedure: The purpose of this study is to determine the pharmacokinetics of test compounds in plasma, following intramuscular administration to male Sprague Dawley Rats (n=3, unless otherwise specified).
The dose formulation of 400 mg base equivalents/ml in sesame oil+1% benzyl alcohol (unless otherwise specified) was administered by intramuscular injection. The dose volume was determined by the animals' body weight determined on the morning of dosing day.
Each collected blood sample was centrifuged for 4 minutes at 4° C. and 10000 rpm for plasma collection. Plasma was collected and transferred into a pre-labeled PP tube in dry ice at each time point and precipitated immediately using ACN at a ratio of 1:4 (plasma:ACN). Centrifuged again (10 minutes, 12000 rpm) and obtain the supernatant.
After terminal collection, all supernatant was stored at approximately −80° C. until bioanalysis.
LC-MS/MS methods for the quantitative determination of test compound in biological matrix were developed. […] The sample analysis was performed concurrently with a set of calibration standards and two sets of QC samples using the LC-MS/MS method.
Plasma concentration versus time data was analyzed by non-compartmental approaches using the Phoenix WinNonlin 6.3 software program. Cmax, Tmax, T1/2, AUC(0-t), AUC(0-inf), MRT(0-t), MRT(0-inf) and graphs of plasma concentration versus time profile were prepared.

[11] = Dog pharmacokinetic studies, deep intramuscular; format: in vivo, Beagle dogs; conditions: dog IM, Sesame oil + 1% Benzyl Alcohol
DOR = target: T3, DOR (Homo sapiens, UniProt P41143); test: Opioid receptor binding assay, DOR ([3H]-DADLE); conditions: DOR, MaxDose 10000 nM
T3 construct: expressed in transfected cells; membranes prepared from them

[12] = 80 mg/kg, Sesame oil + 1% Benzyl Alcohol
[13] = 123 mg/kg, Sesame oil + 1% Benzyl Alcohol
[14] = 165 mg/kg, Sesame oil + 1% Benzyl Alcohol
[15] = 80 mg/kg, Cottonseed + 1% Benzyl Alcohol
[16] = 123 mg/kg, Cottonseed oil + 1% Benzyl Alcohol

T2 sequence (P35372 whole entry): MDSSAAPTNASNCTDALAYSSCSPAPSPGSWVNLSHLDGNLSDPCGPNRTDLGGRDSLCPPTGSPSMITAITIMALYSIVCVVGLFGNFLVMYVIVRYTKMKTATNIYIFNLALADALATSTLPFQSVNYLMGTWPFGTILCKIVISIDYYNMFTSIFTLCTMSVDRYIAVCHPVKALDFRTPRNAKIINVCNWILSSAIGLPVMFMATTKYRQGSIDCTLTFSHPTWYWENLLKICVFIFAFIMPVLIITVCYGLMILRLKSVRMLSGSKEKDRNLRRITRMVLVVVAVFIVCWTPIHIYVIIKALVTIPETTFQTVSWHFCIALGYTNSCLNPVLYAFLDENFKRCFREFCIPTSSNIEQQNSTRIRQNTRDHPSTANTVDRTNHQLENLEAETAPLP
T1 sequence (P41145 whole entry): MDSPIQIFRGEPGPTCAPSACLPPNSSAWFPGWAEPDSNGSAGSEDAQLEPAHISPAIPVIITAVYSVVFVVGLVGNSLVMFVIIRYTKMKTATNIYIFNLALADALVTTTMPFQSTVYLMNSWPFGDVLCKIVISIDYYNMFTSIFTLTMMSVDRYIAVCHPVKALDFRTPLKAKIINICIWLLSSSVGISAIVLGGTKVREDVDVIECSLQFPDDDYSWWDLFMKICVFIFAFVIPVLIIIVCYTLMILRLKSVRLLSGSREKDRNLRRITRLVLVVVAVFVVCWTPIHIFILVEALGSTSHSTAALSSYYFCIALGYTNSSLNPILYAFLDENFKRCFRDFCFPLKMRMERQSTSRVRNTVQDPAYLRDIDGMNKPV
T3 sequence (P41143 whole entry): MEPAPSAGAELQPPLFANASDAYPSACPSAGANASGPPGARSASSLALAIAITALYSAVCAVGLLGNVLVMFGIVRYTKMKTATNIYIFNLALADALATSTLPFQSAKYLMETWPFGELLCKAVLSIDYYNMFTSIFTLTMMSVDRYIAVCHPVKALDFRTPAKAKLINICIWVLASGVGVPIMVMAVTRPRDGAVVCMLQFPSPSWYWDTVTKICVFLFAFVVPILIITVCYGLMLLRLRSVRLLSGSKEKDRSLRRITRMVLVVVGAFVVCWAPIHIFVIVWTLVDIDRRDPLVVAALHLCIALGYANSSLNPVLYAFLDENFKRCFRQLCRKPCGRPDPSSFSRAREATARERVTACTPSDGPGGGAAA

| Compound | Equilibrium solubility (mg/mL) Water ([1]; heating temp. 40 °C) | Approximate Solubility (mg/mL) in Excipient: Sesame oil ([2]; obs. temp. 25 °C) | Approximate Solubility (mg/mL) in Excipient: Sesame oil ([2]; obs. temp. 40 °C) | % remaining at time point in minutes, 0 min [3] | % remaining at time point in minutes, 15 min [3] | % remaining at time point in minutes, 120 min [3] | % remaining at time point in minutes, 480 min [3] | % remaining at time point in minutes, 1440 min [3] | % remaining at time point in minutes, 0 min [4] | % remaining at time point in minutes, 15 min [4] | % remaining at time point in minutes, 120 min [4] | % remaining at time point in minutes, 480 min [4] | % remaining at time point in minutes, 1440 min [4] | % remaining at time point in minutes, 0 min [5] | % remaining at time point in minutes, 15 min [5] | % remaining at time point in minutes, 120 min [5] | % remaining at time point in minutes, 480 min [5] | % remaining at time point in minutes, 1440 min [5] | % remaining at time point in minutes, 0 min [6] | % remaining at time point in minutes, 15 min [6] | also measured |
| --- | --- | --- | --- | --- | --- | --- | --- | --- | --- | --- | --- | --- | --- | --- | --- | --- | --- | --- | --- | --- | --- |
| O=C(CCC1CCCC1)Oc1ccc2c3c1O[C@H]1C(=O)CC[C@@]4(O)C(C2)N(CC2CC2)CC[C@]314 [Compound 43, (4aS,7aR,12bS)-3-(cyclopropylmethyl)-4a-hydroxy-7-oxo-2,3,4,4a,5,6,7,7a-octahydro-1H-4,12-methanobenzofuro[3,2-e]isoquinolin-9-yl 3-cyclopentylpropanoate] | 0.048 mg/mL | – | – | – | – | – | – | – | – | – | – | – | – | – | – | – | – | – | – | – | – |
| C=C1CC[C@@]2(O)C3Cc4ccc(OC(=O)CCCCCCCCCCCCCCCCC)c5c4[C@@]2(CCN3CC2CC2)[C@H]1O5 [Compound 12, (4aS,7aS,12bS)-3-(cyclopropylmethyl)-4a-hydroxy-7-methylene-2,3,4,4a,5,6,7,7a-octahydro-1H-4,12-methanobenzofuro[3,2-e]isoquinolin-9-yl stearate] | 0.026 mg/mL | <50 mg/mL | >411.1 mg/mL | – | – | – | – | – | – | – | – | – | – | – | – | – | – | – | – | – | – |
| C=C1CC[C@@]2(O)C3Cc4ccc(OC(=O)OCCCCCCCCCCCC)c5c4[C@@]2(CCN3CC2CC2)[C@H]1O5 [Compound 6, (4aS,7aS,12bS)-3-(cyclopropylmethyl)-4a-hydroxy-7-methylene-2,3,4,4a,5,6,7,7a-octahydro-1H-4,12-methanobenzofuro[3,2-e]isoquinolin-9-yl dodecyl carbonate] | – | >386 mg/mL | – | 100% | 31.3% | 7.6% | 4% | 1.6% | 100% | 89.1% | 96.9% | 107.2% | 101.2% | 100% | 88.7% | 74.3% | 68.4% | 70.1% | 100% | 97.6% | % remaining at time point in minutes, 120 min [6]: 102%; % remaining at time point in minutes, 480 min [6]: 109.8%; % remaining at time point in minutes, 1440 min [6]: 115.1%; Liver S9 Fraction Stability % remaining at 60 minutes, Dog [7]: 17.1%; Liver S9 Fraction Stability % remaining at 60 minutes, Monkey [8]: 0%; Liver S9 Fraction Stability % remaining at 60 minutes, Human [9]: 5.3%; %Inh@MaxDose (KOR): 99.6%; %Inh@MaxDose (MOR): 102.5%; Approximate Solubility (mg/mL) in Excipient: Cottonseed oil ([2]; obs. temp. 25 °C): >397 mg/mL; AUC0-inf (ng · h/mL) prodrug [10, 12]: 78.9 ng·h/mL; Half-life t1/2 (hour) prodrug [10, 12]: 340 h; AUC0-inf (ng · h/mL) prodrug [10, 13]: 620 ng·h/mL; Half-life t1/2 (hour) prodrug [10, 13]: 213 h; AUC0-inf (ng · h/mL) prodrug [10, 14]: 637 ng·h/mL; Half-life t1/2 (hour) prodrug [10, 14]: 204 h; AUC0-inf (ng · h/mL) prodrug ([11]; 30 mg/kg): 398 ng·h/mL; Half-life t1/2 (hour) prodrug ([11]; 30 mg/kg): 95 h; AUC0-inf (ng · h/mL) prodrug ([11]; 96 mg/kg): 1290 ng·h/mL; Half-life t1/2 (hour) prodrug ([11]; 96 mg/kg): 88 h |
| C=C1CC[C@@]2(O)C3Cc4ccc(OCOC(=O)OCCCCCCCCCCCC)c5c4[C@@]2(CCN3CC2CC2)[C@H]1O5 [Compound 24, (((4aS,7aS,12bS)-3-(cyclopropylmethyl)-4a-hydroxy-7-methylene-2,3,4,4a,5,6,7,7a-octahydro-1H-4,12-methanobenzofuro[3,2-e]isoquinolin-9-yl)oxy)methyl dodecyl carbonate] | – | – | – | 100% | 32% | 11.8% | 8.2% | 3% | 100% | 94.7% | 104.5% | 115.7% | 116.2% | 100% | 90.7% | 93.5% | 96.2% | 97.8% | 100% | 94% | % remaining at time point in minutes, 120 min [6]: 102.3%; % remaining at time point in minutes, 480 min [6]: 105.3%; % remaining at time point in minutes, 1440 min [6]: 112.5%; Liver S9 Fraction Stability % remaining at 60 minutes, Dog [7]: 3.6%; Liver S9 Fraction Stability % remaining at 60 minutes, Monkey [8]: 3%; Liver S9 Fraction Stability % remaining at 60 minutes, Human [9]: 3.5%; %Inh@MaxDose (DOR): 48%; %Inh@MaxDose (KOR): 82.9%; %Inh@MaxDose (MOR): 88.7%; AUC0-inf (ng · h/mL) prodrug [10, 15]: 147 ng·h/mL; Half-life t1/2 (hour) prodrug [10, 15]: 398 h; AUC0-inf (ng · h/mL) prodrug [10, 16]: 547 ng·h/mL; Half-life t1/2 (hour) prodrug [10, 16]: 717 h; AUC0-inf (ng · h/mL) prodrug ([10]; 165 mg/kg, Cottonseed oil + 1% Benzyl Alcohol): 453 ng·h/mL |
| C=C1CC[C@@]2(O)[C@H]3Cc4ccc(O)c5c4[C@@]2(CCN3CC2CC2)[C@H]1O5 [61 (Nalmefene)] | – | – | <25.5 mg/mL | – | – | – | – | – | – | – | – | – | – | – | – | – | – | – | – | – | Approximate Solubility (mg/mL) in Excipient: Cottonseed oil ([2]; obs. temp. 40 °C): <25.0 mg/mL; Approximate Solubility (mg/mL) in Excipient: Ethanol ([2]; Ethanol, obs. temp. 40 °C): 102 to 137 mg/mL; Equilibrium solubility (mg/mL) Water ([1]; heating temp. 60 °C): 0.025 mg/mL |

From US10525055B2, “Opioid receptor antagonist prodrugs” (Nirsum Laboratories, Inc., priority 2017, dated 2020)
